In brackets after ≈: the same amount, converted by molar mass. Where two headings read alike, the source gives them in different places.
How the values were obtained:
Escherichia coli 111 = assay: Protection ability against systemic infection; assay type: in vivo, ICR mice; settings: Escherichia coli, 111, in Mus musculus, iv, 168 h, i.p. infection, i.v. compound 1 hour later, survival at 1 week
Procedure: (§1) Protection ability against systemic infection was determined as follows. An aqueous suspension of test bacteria was intraperitoneally injected into 10 four week old ICR mice. One hour after the infection, test compounds were intravenously administered. The number of surviving mice was counted 1 week after injection to determine the dose at which 50% of the test animals were alive (ED50 :mg/kg).

[1] = system: Pseudomonas aeruginosa IFO3445; assay: Protection ability against systemic infection; assay type: in vivo, ICR mice; settings: iv, 168 h, i.p. infection, i.v. compound 1 hour later, survival at 1 week
Procedure: as §1

Serratia marcescens 274 = assay: Protection ability against systemic infection; assay type: in vivo, ICR mice; settings: iv, 168 h, i.p. infection, i.v. compound 1 hour later, survival at 1 week
Procedure: as §1

[2] = system: Staphylococcus aureus 242 (methicillin-resistant strain); assay: Protection ability against systemic infection; assay type: in vivo, ICR mice; settings: in Mus musculus, iv, 168 h, i.p. infection, i.v. compound 1 hour later, survival at 1 week
Procedure: as §1

[3] = system: Serratia marcescens IFO3759; assay: Antibacterial activity in vitro, agar plate dilution method (MIC); assay type: cell-based; settings: Mueller Hinton agar, 10^6 cells/ml, 37° C., 20 hours
Procedure: (§2) Antibacterial activity in vitro was determined in accordance with the agar plate dilution method. A platinum loop each of test bacteria (10^6 cells/ml), cultured in Mueller Hinton broth, was inoculated on Mueller Hinton agar plates which contained test compounds at various concentrations. After cultivating at 37° C. for 20 hours, the minimum inhibitory concentration (MIC μg/ml) was determined.

[4] = system: Klebsiella pneumoniae IFO3317; assay: as above; assay type: cell-based; settings: Mueller Hinton agar, 10^6 cells/ml, 37° C., 20 hours
Procedure: as §2

[5] = system: Staphylococcus aureus Smith; assay: as above; assay type: cell-based; settings: Mueller Hinton agar, 10^6 cells/ml, 37° C., 20 hours
Procedure: as §2

[6] = system: Pseudomonas aeruginosa IFO3445; assay: as above; assay type: cell-based; settings: Mueller Hinton agar, 10^6 cells/ml, 37° C., 20 hours
Procedure: as §2

Escherichia coli 67 = assay: as above; assay type: cell-based; settings: Mueller Hinton agar, 10^6 cells/ml, 37° C., 20 hours
Procedure: as §2

LD50, Probit method = settings: in vivo, iv
Procedure: Next, LD50 of representative examples of the compounds of the present invention is shown in Table 3 wherein LD50 was determined in accordance with the Probit method.

[7] = system: Bacteroides fragilis 5524; assay: Antibacterial activity in vitro, agar plate dilution method (MIC); assay type: cell-based; settings: Mueller Hinton agar, 10^6 cells/ml, 37° C., 20 hours
Procedure: as §2

[8] = Serratia marcescens, 274, in Mus musculus, Table 2-a
[9] = in Mus musculus, Table 2-a, read-out: ED50
[10] = in Mus musculus, Table 2-b, read-out: ED50

Structure (SMILES) | ED50 (Escherichia coli 111; Table 2-a, read-out: ED50) [mg/kg] | ED50 (Serratia marcescens 274; [8]) [mg/kg] | MIC [3] [µg/mL] | MIC [4] [µg/mL] | MIC [5] [µg/mL] | MIC [6] [µg/mL] | MIC (Escherichia coli 67) [µg/mL] | LD50 (LD50, Probit method) [mg/kg] | ED50 [1, 9] [mg/kg] | ED50 ([2]; Table 2-a, read-out: ED50) [mg/kg] | also measured
CC(C)(O/N=C(\C(=O)N[C@@H]1C(=O)N2C(C(=O)[O-])=C(C[n+]3ccccc3)CS[C@H]12)c1csc(N)n1)C(=O)O [CAZ, Ceftazidime, reference compound] | 6.55 | 4.23 | – | – | – | – | – | – | – | – | ED50 (Escherichia coli 111; Table 2-b): 3.91 mg/kg; ED50 ([1]; Pseudomonas aeruginosa, IFO3445, in Mus musculus, Table 2-a): 229 mg/kg; ED50 ([1]; Pseudomonas aeruginosa, IFO3445, in Mus musculus, Table 2-b): 230 mg/kg; ED50 (Serratia marcescens 274; Serratia marcescens, 274, in Mus musculus, Table 2-b): 6.41 mg/kg; ED50 ([2]; Table 2-a): > 100 mg/kg; ED50 ([2]; Table 2-b): > 2100 mg/kg
CC(=O)Oc1cc(C)c(C(=O)O/N=C(\C(=O)N[C@@H]2C(=O)N3C(C(=O)O)=C(CSc4cc(C)nc5nc(C(=O)O)nn45)CS[C@H]23)c2csc(N)n2)cc1OC(C)=O [Compound 2, (6R,7R)-7-[2-(2-amino-4-thiazolyl)-2-[Z-(4,5-diacetoxy-2-methylbenzoyl)oxyimino]acetamido]-3-[(2-carboxy-5-methyl-s-triazolo [1,5-a]pyrimidin-7-yl)thiomethyl]-8-oxo-5-thia-1-azabicyclo[4.2.0]oct-2-ene-2-carboxylic acid] | 2.28 | – | < 0.05 | < 0.05 | 0.78 (≈ 0.945 µM) | 0.2 (≈ 0.242 µM) | < 0.05 | > 1000 | 212 | 7.9 | ED50 (Serratia marcescens 274; [9]): 3.08 mg/kg
Cc1cc(SCC2=C(C(=O)O)N3C(=O)[C@@H](NC(=O)/C(=N\OC(=O)c4cc(O)c(O)cc4C)c4csc(N)n4)[C@H]3SC2)n2nc(C(=O)O)nc2n1 [Compound 3] | – | 1.73 | < 0.05 | < 0.05 | – | 0.2 (≈ 0.27 µM) | < 0.05 | – | 407 | 1.79 | –
Cc1cc(SCC2=C(C(=O)O)N3C(=O)[C@@H](NC(=O)/C(=N\O[C@H](C(=O)O)c4ccc(O)c(O)c4)c4csc(N)n4)[C@H]3SC2)n2nc(C(=O)O)nc2n1 [Compound 9, (6R,7R)-7-[2-(2-amino-4-thiazolyl)-2-[Z-[(S)-carboxy(3,4-dihydroxyphenyl)-methyl]oxyimino]acetamido]-3-[(2-carboxy-5-methyl-s-triazolo [1,5-a]pyrimidin-7-yl)thiomethyl]-8-oxo-5-thia-1-azabicyclo[4.2.0]oct-2-ene-2-carboxylic acid] | – | – | 0.05 (≈ 0.066 µM) | < 0.05 | 0.78 (≈ 1.03 µM) | 1.56 (≈ 2.06 µM) | 0.1 (≈ 0.132 µM) | > 1000 | – | – | MIC [7]: 6.25 µg/mL (≈ 8.25 µM); ED50 (Escherichia coli 111; Table 2-b, read-out: ED50): 1.73 mg/kg; ED50 [1, 10]: 95 mg/kg; ED50 (Serratia marcescens 274; [10]): 0.47 mg/kg; ED50 ([2]; Table 2-b, read-out: ED50): 3.34 mg/kg

— patent US5001121A, “Cephalosporin compounds and pharmaceutical compositions thereof” (Mochida Pharmaceutical Co., Ltd., priority 1985, dated 1991)
